Data published in patent US11091511B2, “Panaxdiol-type ginsenoside derivative, preparation method therefor and use thereof” (ARMY MEDICAL UNIVERSITY, priority 2016, dated 2021).
Marks after values point to notes of the source that are not given here.

Experiments:
apoE−/− mice [1] = experiment: Blood lipids (LDL-C, HDL-C) in apoE-/- mice on high-fat diet; assay type: in vivo, mouse; conditions: apoE-/- mice serum, intragastric 15 weeks, compounds 30 mg/(kg·d), simvastatin 10 mg/(kg·d), x ± s; for HDL-C: n = 5, saline control 3.74 ± 0.62; for LDL-C: n = 5, saline control 7.33 ± 1.03
Text: The effects of the compounds prepared in Examples 1-30 of the present invention on the percentages of areas of atherosclerotic plaque formation to the area of the entire artery in apoE−/− mice with a high-fat diet and the levels of low-density lipoprotein cholesterol and the levels of high-density lipoprotein, the specific steps are as follows:
1. animals: 160 ten-week-old, healthy and clean-grade apoE−/− mice (purchased from Peking University Experimental Animal Center), males, weight: 22-25 g, were housed in separate cages in a sterile laminar feeding room and fed freely. The mice were fed by a high-fat diet (conventional feed+0.15% cholesterol+21% lard) for 25 weeks, the room temperature was kept at 24° C., relative humidity: 50%, illumination time 7:30-19:30.
2. Grouping, administration method:
after 10 weeks of feeding, the animals were divided into the following 32 groups (n=5) by weight in a balanced and random manner, and killed 15 weeks after administration.
Normal saline control group: normal saline, intragastric administration.
Positive control group: simvastatin 10 mg/(kg·d), intragastric administration.
The compound groups prepared in Examples 1-30 of the present invention (30 groups in total): each was intragastric administered 30 mg/(kg·d).
(2) Determination of the levels of total cholesterol (TC), low-density cholesterol lipoprotein (LDL-C) and high-density lipoprotein cholesterol (HDL-C): using ROCHE 7060 automatic biochemical analyzer for the determination.
Data were expressed as x±s, and SPSS 10.0 line single-factor analysis of variance was performed among groups, a significant difference was indicated when p<0.05.

RAW264.7 cells = experiment: RAW264.7 cell survival rate by CCK8 method; assay type: cell-based, mouse; conditions: compound 10 prnol/L, 0.1% DMSO, CCK8, x ± s, n = 3, normal saline control = 1
Method: In order to further verify the toxicities of the compounds prepared in Examples 1-30 of the present invention, the mouse macrophage cell line RAW264.7 was cultured, and the compounds prepared in Examples 1-30 of the invention were prepared to a concentration of […] using culture medium, wherein the solvent was normal saline, the co-solvent was dimethyl sulfoxide (DMSO, the final concentratoin was 0.1%), and a 0.1% DMSO saline control group was provided. The cell survival rate was determined by CCK8 method. The data were expressed as x±s. SPSS 10.0 line single-factor analysis of variance was performed among groups. The difference was significant when p<0.05.

[2] = system: RAW264.7 cell-derived foam cells; experiment: Formation of RAW264.7 cell-derived foam cells (ox-LDL, oil red O, absorbance 490 nm); assay type: cell-based, mouse; conditions: 48 hours, model group = 100%, x ± s, n = 3
Method: The effects of the compounds prepared in Examples 1-30 of the present invention on the formation of RAW264.7 cell-derived foam cells, the specific steps are as follows:
1. Cell culture and foam cell model establishment:
RAW264.7 cells were cultured in DMEM culture medium with high glucose level (GIBCO) to a cell concentration of 1×10^6, planted in a 6-well plate, and 60 mg/L of ox-LDL (oxidized modified low-density lipoprotein, Peking Union Medical College) was added, foam cells were obtained after 48 hours of incubation.
2. Grouping and index detection:
The obtained foam cells were divided into 61 groups, 3 well plates were included in one group. After the treatment by adding the drugs (100 μL/well) for 48 hours, the medium was discarded, and after oil red 0 staining, the excess amount of oil red 0 was washed away. The cells were dissolved in isopropanol and the absorbance values were measured at 490 nm. The OD value of the model group was 100%, and the OD value of each group corrected by the number of cells was compared with the model group to obtain the ratio of intracellular lipid content. The larger the value, the more intracellular lipids, the higher the degree of formation of foam cells.
Normal saline control group: normal saline
Low dose groups of the compounds prepared in Examples 1-30 of the present invention:
10 μmol/L (solvents were normal saline).
High dose groups of compounds prepared in Examples 1-30 of the present invention: 30 μmol/L (solvents were normal saline).
Data were expressed as x±s, and SPSS 10.0 line single-factor analysis of variance was performed amoung groups, a significant difference was indicated when p<0.05.

TNF-α = experiment: Local TNF-α level in the arteries of apoE-/- mice (Millipore liquid phase chip); assay type: in vivo, mouse; conditions: high-fat diet, intragastric 15 weeks, compounds 30 mg/(kg·d), simvastatin 10 mg/(kg·d), x ± s, n = 5, saline control 25.58 ± 6.44
Text: (§1) The effects of the compounds prepared in Examples 1-30 of the present invention on the percentages of areas of atherosclerotic plaque formation to the area of the entire artery in apoE−/− mice with a high-fat diet and the levels of low-density lipoprotein cholesterol and the levels of high-density lipoprotein, the specific steps are as follows: 1. animals: 160 ten-week-old, healthy and clean-grade apoE−/− mice (purchased from Peking University Experimental Animal Center), males, weight: 22-25 g, were housed in separate cages in a sterile laminar feeding room and fed freely. The mice were fed by a high-fat diet (conventional feed+0.15% cholesterol+21% lard) for 25 weeks, the room temperature was kept at 24° C., relative humidity: 50%, illumination time 7:30-19:30. 2. Grouping, administration method: after 10 weeks of feeding, the animals were divided into the following 32 groups (n=5) by weight in a balanced and random manner, and killed 15 weeks after administration. Normal saline control group: normal saline, intragastric administration. Positive control group: simvastatin 10 mg/(kg·d), intragastric administration. The compound groups prepared in Examples 1-30 of the present invention (30 groups in total): each was intragastric administered 30 mg/(kg·d). (3) Determination of TNF-α level: Millipore liquid phase chip method was used for the determination (Mcytomag-70K-3, Mouse Cytokine/Chemokine Magnetic Bead Panel). Data were expressed as x±s, and SPSS 10.0 line single-factor analysis of variance was performed among groups, a significant difference was indicated when p<0.05.

apoE−/− mice [3] = experiment: Atherosclerotic plaque area to total aortic area in apoE-/- mice on high-fat diet (Sudan IV staining); assay type: in vivo, mouse; conditions: intragastric 15 weeks, compounds 30 mg/(kg·d), simvastatin 10 mg/(kg·d), x ± s, n = 5, saline control 14.67 ± 3.58
Text: as §1, with “(1) Analysis” for “(3) Determination”, “the area of atherosclerotic plaque and its percentage to total area: after the animals were killed, the aortas were separated, from the roots of the aortas to the terminal bifurcations of the abdominal aortas. After formalin fixation, the aortas were stained with Sudan IV, the red stained parts were the areas of atherosclerotic lesions. The percentage of the area of the lesion area to total area” for “TNF-α level: Millipore liquid phase chip method”, “calculated using Image Pro Plus 5.0 software.” for “used for the determination (Mcytomag-70K-3, Mouse Cytokine/Chemokine Magnetic Bead Panel).”

Row | Compound | HDL-C (apoE−/− mice [1]) | LDL-C (apoE−/− mice [1]) | Cell Survival Rate (RAW264.7 cells) | Foam cell formation (%) ([2]; dose 10 μmol/L) | Foam cell formation (%) ([2]; dose 30 μmol/L) | TNF-α level (ng/g) (TNF-α) | Plaque area/total aorta area (%) (apoE−/− mice [3])
1 | COC(=O)[C@H](CO)NCCC[C@](C)(O[C@H]1O[C@H](COC(C)=O)[C@@H](OC(C)=O)[C@H](OC(C)=O)[C@H]1OC(C)=O)C1CC[C@]2(C)[C@@H]1C(OC(C)=O)CC1[C@@]3(C)CC[C@H](OC(C)=O)C(C)(C)C3CC[C@]12C (stereo partly shown) [Compound 7] | 4.52 ± 0.46 ^a mmol/L | 5.50 ± 1.82 ^a mmol/L | 0.86 ± 0.01 | 83 ± 13% | 71 ± 13 ^a % | 17.77 ± 4.63 ^a ng/g | 11.02 ± 2.71 ^a %
2 | COC(=O)CC[C@H](NCCC[C@](C)(O[C@H]1O[C@H](COC(C)=O)[C@@H](OC(C)=O)[C@H](OC(C)=O)[C@H]1OC(C)=O)C1CC[C@]2(C)[C@@H]1C(OC(C)=O)CC1[C@@]3(C)CC[C@H](OC(C)=O)C(C)(C)C3CC[C@]12C)C(=O)OC (stereo partly shown) [Compound 8] | 5.63 ± 0.84 ^a mmol/L | 4.34 ± 1.19 ^a mmol/L | 0.82 ± 0.06 | 73 ± 16 ^a % | 51 ± 17 ^a % | 12.67 ± 3.11 ^a ng/g | 9.31 ± 3.58 ^a %
3 | COC(=O)CNCCC[C@](C)(O[C@H]1O[C@H](COC(C)=O)[C@@H](OC(C)=O)[C@H](OC(C)=O)[C@H]1OC(C)=O)C1CC[C@]2(C)[C@@H]1C(OC(C)=O)CC1[C@@]3(C)CC[C@H](OC(C)=O)C(C)(C)C3CC[C@]12C (stereo partly shown) [Compound 9] | 4.41 ± 0.67 ^a mmol/L | 6.84 ± 0.85 mmol/L | 0.85 ± 0.07 | 79 ± 23% | 65 ± 17 ^a % | 12.85 ± 4.17 ^a ng/g | 10.55 ± 2.19 ^a %
4 | CCOC(=O)CCNCCC[C@](C)(O[C@H]1O[C@H](COC(C)=O)[C@@H](OC(C)=O)[C@H](OC(C)=O)[C@H]1OC(C)=O)C1CC[C@]2(C)[C@@H]1C(OC(C)=O)CC1[C@@]3(C)CC[C@H](OC(C)=O)C(C)(C)C3CC[C@]12C (stereo partly shown) [Compound 10] | 4.50 ± 0.94 ^a mmol/L | 6.54 ± 1.06 mmol/L | 0.82 ± 0.13 | 69 ± 18 ^a % | 45 ± 21 ^a % | 11.66 ± 2.65 ^a ng/g | 8.52 ± 3.25 ^a %
5 | CCOC(=O)C(NCCC[C@](C)(O[C@H]1O[C@H](COC(C)=O)[C@@H](OC(C)=O)[C@H](OC(C)=O)[C@H]1OC(C)=O)C1CC[C@]2(C)[C@@H]1C(OC(C)=O)CC1[C@@]3(C)CC[C@H](OC(C)=O)C(C)(C)C3CC[C@]12C)C(=O)OCC (stereo partly shown) [Compound 11] | 4.93 ± 0.58 ^a mmol/L | 6.59 ± 1.56 mmol/L | 0.84 ± 0.12 | 72 ± 14 ^a % | 65 ± 15 ^a % | 12.33 ± 5.81 ^a ng/g | 9.68 ± 3.52 ^a %
6 | COC(=O)[C@H](Cc1ccccc1)NCCC[C@](C)(O[C@H]1O[C@H](COC(C)=O)[C@@H](OC(C)=O)[C@H](OC(C)=O)[C@H]1OC(C)=O)C1CC[C@]2(C)[C@@H]1C(OC(C)=O)CC1[C@@]3(C)CC[C@H](OC(C)=O)C(C)(C)C3CC[C@]12C (stereo partly shown) [Compound 12] | 4.44 ± 0.83 ^a mmol/L | 5.27 ± 1.74 ^a mmol/L | 0.87 ± 0.16 | 84 ± 15% | 68 ± 21 ^a % | 18.27 ± 5.24 ^a ng/g | 10.23 ± 3.54 ^a %
7 | COC(=O)[C@@H](Cc1ccc(O)cc1)NCCC[C@](C)(O[C@H]1O[C@H](COC(C)=O)[C@@H](OC(C)=O)[C@H](OC(C)=O)[C@H]1OC(C)=O)C1CC[C@]2(C)[C@@H]1C(OC(C)=O)CC1[C@@]3(C)CC[C@H](OC(C)=O)C(C)(C)C3CC[C@]12C (stereo partly shown) [Compound 13] | 5.29 ± 1.18 ^a mmol/L | 5.07 ± 0.99 ^a mmol/L | 0.85 ± 0.12 | 71 ± 14 ^a % | 47 ± 23 ^a % | 15.65 ± 6.74 ^a ng/g | 9.44 ± 3.24 ^a %
